# Laboratory results as given in patent US7232837B2, “Stereoisomers with high affinity for adrenergic receptors” (McNeil-PPC, Inc., priority 1999, dated 2007).
# Counter-ions that a name gives are not always drawn. Like-named read-outs stand apart in the source and are kept apart here.
# What was measured:
# Swiss-Webster mice [1] = assay: H1 receptor antagonist (triprolidine) interaction study, locomotor activity in mice; details: for effect of triprolidine pretreatment on stimulant or depressant effects: mice pretreated with triprolidine 20 min before the test compound
# Description: H1 receptor antagonist interaction studies. […] The mice were immediately placed in the activity testing chamber for a 2-h session. Doses of the test compound were selected from the ascending or descending time of the dose-effect curve determined from the compound-alone studies. Eight mice were tested for each triprolidine/test compound combination.
# (§1) Statistical analysis. Time course data for each compound were considered in 2-way analyses of variance with dose as a between-group and time as a within-group factor. The dose-effect data were considered in 1-way analyses of variance, and planned individual comparisons were conduced between each dose and the saline control group. Interaction studies were considered in 2-way analyses of variance, with Pretreatment and Test dose as the factors.
# Swiss-Webster mice [2] = assay: Locomotor stimulant and depressant effects in mice; details: i.p.; for Depression Efficacy: ratio of the maximal depressant effect to the maximum possible effect (zero locomotor activity) / Stimulation Efficacy: ratio of the maximal stimulant effect of the test compound to the maximal effect of (+)-amphetamine: locomotor activity
# Description: Male Swiss-Webster mice (HSD ND4, Harlan Sprague Dawley, Houston, Tex.) aged 2–3 months were used in these studies. Each dose group consisted of 8 mice. The mice were housed 2 to 4 per cage in 30.4×22.9×15.2 cm clear polycarbonate cages with food and water available ad libitum for at least one week prior to locomotor activity testing. The colony was maintained at 23±1° C., on a normal light-dark cycle beginning at 0700 hr. All testing took place during the light portion of the light-dark cycle.
# Horizontal (forward movement) locomotor activity was measured using a standardized, optical activity monitoring system [Model KXYZCM (16), Omnitech Electronics, Columbus, Ohio]. Activity was monitored in forty 40.5×40.5×30.5 cm clear acrylic chambers that where housed in sets of two within larger sound-attenuating chambers. A panel of 16 infrared beams and corresponding photodetectors were spaced 2 cm apart along the sides and 2.4 cm above the floor of each activity chamber. A 7.5-W incandescent light above each chamber provided dim illumination via a rheostat set to 20% of full scale. Fans provided an 80-dB ambient noise level within the chamber.
# Triprolidine HCl was obtained from Research Biochemicals International, (Natick, Mass.).
# Locomotor stimulant effects. […] (+)-Amphetamine was used as a positive control. The total horizontal distance traversed (cm) was recorded at 10 minute intervals for a 2-hour session. Separate groups of 8 mice were assigned to each dose or saline group, and dose-effect testing continued for each compound until maximal stimulant or depressant effects could be estimated. A separate control group was tested along with each compound.
# Using TableCurve 2D v2.03 (Jandel Scientific), the mean average total distance traversed (cm/10 min) for that period was fit to a 3-parameter logistic peak function of log10 dose (with the constant set to the mean of the saline group), and the maximum effect estimated from the resulting curve. The […] (dose producing ½ maximal stimulant activity) was estimated from a linear regression against log10 dose of the ascending portion of the dose-effect curve. The stimulant efficacy was the peak effect of the compound (cm/10 min) as estimated from the logistic peak function, minus the mean control distance traveled (cm/10 min), and was expressed for each stimulant compound as a ratio to the stimulant efficacy determined for (+)-amphetamine.
# The mean average total distance traversed (cm/10 min) for that period were fit to a linear function of log10 dose of the descending portion of the dose-effect curve. […] Efficacy was the ratio of maximal depressant effect to maximum possible depression for each compound (mean average total distance of the control group minus the lowest mean total distance, expressed as a ratio to the control group total distance).
# as §1
# α2 adrenergic receptors = assay: Alpha-2 binding, 125iodoclonidine, canine brain (frontal cortex) membranes; parameters: species or system canine (mongrel dogs); details: for Kd: canine cerebral cortex membranes
# Description: BRAIN ALPHA-2 RECEPTORS: Membranes of mongrel dogs were harvested from the canine frontal cortex and prepared as described for lung except that the final membrane protein concentration was adjusted to 0.5 mg/ml.
# (§2) ALPHA-2 BINDING ^125IODOCLONIDINE. […] Nonspecific binding was determined in separate incubations in the presence of 10 μM phentolamine. The final concentration of p-iodoclonidine was 44–45 pM in competition studies and between 50 pM and 10 nM in saturation experiments. Bound and free p-^125iodoclonidine were separated and the bound quantified as described above for the ICYP assays. […] BETA-2 BINDING, ^125IODOCYANOPINDOLOL (^125ICYP). […] Nonspecific binding was determined in separate incubations in the presence of 2 μM d,l-propranolol. Each experimental point was determined in triplicate. […] Incubations were terminated as described above for the α1 assays. Filters were placed into polyethylene tubes and the bound ligand was determined by gamma spectrometry (Sano et al., 1993).
# (§3) All data were analyzed with the aid of microcomputer nonlinear curve fitting programs (PRISM 2.0, Graphpad Software, San Diego Calif.).
# (§4) The receptors resident in each of the three membrane preparations were evaluated by standard saturation analysis following the addition of increasing concentrations of the appropriate radioligand. […] The radio ligand added for subsequent α2-displacement assays was adjusted to evaluate only the high affinity receptor. Contributions from p-iodoclonidine binding to imidazoline receptors in the α2-displacement assay were evaluated with epinephrine.
# (§5) The variable, I, is the concentration of tracer added and the variable, Kd, is the equilibrium dissociation constant empirically determined for this receptor population.
# β2 adrenergic receptors = target: T1, β2 adrenergic receptors (Canis lupus familiaris, UniProt P54833); assay: Beta-2 binding, 125iodocyanopindolol (ICYP), canine lung membranes; parameters: species or system canine (mongrel dogs)
# T1 construct: Canine lung membranes (10 μg protein/100 ul) were incubated with ^125ICYP; from tissue; host or cells: mongrel dog lung membranes
# T1 sequence (P54833 whole entry): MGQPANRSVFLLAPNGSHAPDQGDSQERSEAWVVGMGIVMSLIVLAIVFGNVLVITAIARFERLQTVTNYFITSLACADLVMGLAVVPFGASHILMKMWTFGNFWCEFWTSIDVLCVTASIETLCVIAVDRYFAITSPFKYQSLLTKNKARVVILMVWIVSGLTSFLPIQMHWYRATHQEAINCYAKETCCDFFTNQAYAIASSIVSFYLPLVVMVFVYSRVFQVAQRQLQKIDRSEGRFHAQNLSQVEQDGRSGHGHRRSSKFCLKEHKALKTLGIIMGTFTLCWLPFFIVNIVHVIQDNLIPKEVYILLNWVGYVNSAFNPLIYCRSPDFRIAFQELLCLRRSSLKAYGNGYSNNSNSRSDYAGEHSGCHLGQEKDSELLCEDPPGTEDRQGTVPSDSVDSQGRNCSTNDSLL
# Description: PULMONARY ALPHA-1 AND BETA-2 RECEPTORS: The lungs of mongrel dogs were separated from cartilaginous airways and major blood vessels, weighed, chopped and placed into 10 volumes of ice-cold buffered sucrose (50 mM Tris-HCl pH 7.4, 1 mM EGTA, 0.32M Sucrose). The tissue was then homogenized in a Polytron tissue homogenizer. The homogenate was filtered through two layers of cheesecloth, and the filtrate was dounced three times using a Con-Turque Potter homogenizer. […] The supernatant was recentrifuged at 30,000×g for 30 min at 4° C. and the resulting pellet was washed and resuspended in 10 volumes of Tris buffer (50 mM Tris HCl, pH 7.4, 1 mM EGTA) and incubated at 37° C. for 30 min in a shaking water bath. The suspension was centrifuged at 4° C. at 30,000×g for 30 min and the resulting pellet washed in 10 volumes of Tris buffer. […] Protein concentration was then determined by the Lowry method and the final suspension was adjusted to 10 mg of protein/ml, aliquoted and stored at […].
# Particulates were also prepared for β2 receptors using the identical procedure except the final protein concentration was adjusted to 0.1 mg/ml.
# as §2, §3, §4, §5
# [3] = — denotes absence of significant effect
structure (smiles),measurement,setting,value
"Cc1ccc(/C(=C\CN2CCCC2)c2ccccn2)cc1 [triprolidine, Triprolidine HCl]","effect on horizontal distance, triprolidine alone","Swiss-Webster mice [1]; 0.25 to 25 mg/kg, 2-hour test period",failed to affect horizontal distance
same,"effect on locomotion, triprolidine alone",Swiss-Webster mice [1]; 50 and 100 mg/kg,Dose-dependent depression of locomotion
CNC(C)(C)Cc1ccccc1 [mephentermine],Depression Time: 30-min period following injection in which the maximal depression occurred,Swiss-Webster mice [2],0 to 30 min
same,Stimulation Time: 30-min period following injection in which the maximal stimulant effect occurred,Swiss-Webster mice [2],20 to 50 min
same,"locomotor stimulant effects, time course (result in words)",Swiss-Webster mice [2],"increased locomotion following from 5 to 25 mg/kg, with effects occurring within 20 minutes and lasting for up to 80 minutes"
same,time of peak stimulant effects following injection,Swiss-Webster mice [2],20 to 50 min
same,Depression Efficacy: ratio of the maximal depressant effect to the maximum possible effect (zero locomotor activity),Swiss-Webster mice [2],0
same,Stimulation Efficacy: ratio of the maximal stimulant effect of the test compound to the maximal effect of (+)-amphetamine,Swiss-Webster mice [2],1.25
same,Stimulation Potency: dose resulting in ½ the maximal stimulant effect (ID50),Swiss-Webster mice [2]; [3],5.6 mg/kg
same,effect of triprolidine pretreatment on stimulant or depressant effects,Swiss-Webster mice [1],failed to show significant modification of stimulant or depressant effects
"C[C@H](N)[C@H](O)c1cccc(O)c1 (relative stereo) [R-(R*,S*) metaraminol]",Depression Time: 30-min period following injection in which the maximal depression occurred,Swiss-Webster mice [2],30 to 60 min
same,Stimulation Time: 30-min period following injection in which the maximal stimulant effect occurred,Swiss-Webster mice [2],90 to 120 min
same,"locomotor depressant effects, time course (result in words)",Swiss-Webster mice [2],dose-dependent locomotor depression within 10 to 20 minutes following injection
same,Depression Efficacy: ratio of the maximal depressant effect to the maximum possible effect (zero locomotor activity),Swiss-Webster mice [2],0.87
same,Stimulation Efficacy: ratio of the maximal stimulant effect of the test compound to the maximal effect of (+)-amphetamine,Swiss-Webster mice [2],0
same,Depression Potency: dose resulting in ½ the maximal depressant effect (ID50),Swiss-Webster mice [2]; [3],4.3 mg/kg
same,effect of triprolidine pretreatment on stimulant or depressant effects,Swiss-Webster mice [1],failed to show significant modification of stimulant or depressant effects
CNC[C@H](O)c1ccc(O)c(O)c1 [Epinephrine],displacement of bound p-iodoclonidine,"α2 adrenergic receptors; α2-displacement assay, check for imidazoline receptors",easily displaced all bound p-iodoclonidine
Clc1cc(I)cc(Cl)c1NC1=NCCN1 [p-iodoclonidine],Kd,"α2 adrenergic receptors; Saturation Analysis, read-out: Kd1 (high affinity)",150 pM
same,Kd,"α2 adrenergic receptors; Saturation Analysis, read-out: Kd2 (low affinity)",3010 pM
same,Kd,"α2 adrenergic receptors; Scatchard Analysis, read-out: Kd1 (high affinity)",150 pM
same,Kd,"α2 adrenergic receptors; Scatchard Analysis, read-out: Kd2 (low affinity)",870 pM
"CC(C)(C)NCC(O)COc1cccc2[nH]c(C#N)c(I)c12 (stereo not shown) [ICYP, iodocyanopindolol]",Kd,"β2 adrenergic receptors; Saturation Analysis, Run 1",9.6 pM
same,Kd,"β2 adrenergic receptors; Saturation Analysis, Run 2",9.3 pM
same,Kd,"β2 adrenergic receptors; Saturation Analysis, Summary",9.5 pM
same,Kd,"β2 adrenergic receptors; Scatchard Analysis, Run 1",9.9 pM
same,Kd,"β2 adrenergic receptors; Scatchard Analysis, Run 2",7.8 pM
same,Kd,"β2 adrenergic receptors; Scatchard Analysis, Summary",8.9 pM
